The values below are quoted from earlier work in patent publication US20240139133A1, “TOPICAL NAPROXEN FORMULATIONS AND THEIR USE” (SMARTECH TOPICAL, INC., priority 2021, published 2024).

For the series the following is noted: printed as a negative log P.

In general, log P refers to a log measure of how a compound divides between an organic and an aqueous phase. With `CCOCCOCCO` [Transcutol, 2-(2-Ethoxyethoxy)ethanol], the log P is about -0.5.
